These results are taken from US6429204B1, “Method of inhibiting cancer growth” (University of Miami, priority 1997, dated 2002).

Converted amounts (≈) assume the structure as drawn. Some results are limits rather than exact numbers.

The test system of data set [1] is TSU PR-1. As to the kind of experiment: Cytotoxicity GI50 (MTT and thymidine incorporation), TSU PR-1. Conditions: Homo sapiens, TSU-Pr1. Type of data set: cell-based. The method, then: (§1) To confirm this observation, we compared the cytotoxicities of CMT-3 and doxycycline for a panel of common human prostate cancer cell lines. Cytotoxicity was measured using the MTT assay (see above) and a cellular thymidine incorporation assay as described by Lokeshwar et al. (1995a). The 50% growth inhibition (GI50) values obtained using both assays were identical. As shown in the data summarized in Table 3, below, CMT-3 was two- to eight-fold more cytotoxic than doxycycline.
(§2) Growth inhibition was calculated from linear regression of the dose-response curves generated for each experiment using log(dose) vs. cell proliferation (% of control). Correlation coefficient (r) was always ≧0.95 (negative). Results are presented as Mean±SEM of at least three GI50 values calculated from each experiment.

A short description of data set [2]: MTS cytotoxicity assay, COLO 205. Particulars: human, COLO 205 colon carcinoma cells, percent cytotoxicity, two days. In general terms: Tetrazolium dyes change colour on reduction, which living cells bring about.
Experimental: (§3) A panel of chemically modified tetracycline compounds and doxycycline were tested for cytotoxicity against two carcinomas: COLO 205 (a human colon carcinoma-derived cell line) and the E-10 clone of MDA-MB-231 (a human breast carcinoma-derived cell line). Cytoxicity was measured using a conventional assay for viability with a tetrazolium salt (MTS). Cells were grown in media containing the CMTs at concentrations ranging from 5 μM to 100 μM for two days. The cells were then incubated with the MTS for several hours before removal of the supernatant medium for determination of formazan, which is generated only by the viable cells. Results are expressed as percent cytotoxicity, which is simply the percent decline in measured formazan concentration in the sampled medium.
For data set [3], the system named is PC-3. The experiment in a line: Cytotoxicity GI50 (MTT and thymidine incorporation), PC-3. It counts as cell-based. Conditions: Homo sapiens. On the procedure:
as §1, §2
In general terms: Dividing cells build labelled thymidine or BrdU into new DNA.

In data set [4] the test system is LNCaP. As to the kind of experiment: Cytotoxicity GI50 (MTT and thymidine incorporation), LNCaP. It counts as cell-based. Conditions: Homo sapiens. On the procedure: as §1, §2
Data set [5] has as its system DU 145. As to the kind of experiment: Cytotoxicity GI50 (MTT and thymidine incorporation), DU 145. Type of data set: cell-based. Particulars: Homo sapiens. On the procedure: as §1, §2
The subject of data set [6] is Dunning MAT LyLu tumor. The experiment in a line: MAT LyLu tumor incidence, growth and metastasis, predosing 7 days before implant. Conditions: for tumor growth rate (time to reach tumor volume of 3 cm^3): 40 mg/kg predosing, animals with measurable tumors, control 15.9±2.0; for decrease in the number of lung metastases: summary b179, predosing context; for remission of palpable tumors (rats): two separate experiments. It counts as in vivo, Copenhagen rats. On the procedure: Tumor Generation and Treatment: Dunning MAT LyLu cells were harvested from culture flasks, and a 0.5 mL suspension containing from 2×10^5 to 2×10^6 cells/mL was inoculated into the dorsal flank of adult Copenhagen rats (Harlan Sprague Dawley, Indianapolis, Ind.). The rats weighed 250-300 g, and were 90-100 days old. Tumors were detected by palpating the skin around the site of injection starting 3 days following implant of the tumor cells (Lokeshwar et al. 1995a).
Drug Treatment In Vivo: Doxycycline and CMT-3 were dissolved in a 2% aqueous solution of a soluble form of carboxymethyl cellulose (Sigma Cat. No. C-5678), and a fresh solution was made up daily. Rats were gavaged daily with 1 mL of the drug solution (concentrations specified below), or the vehicle (2% carboxymethyl cellulose). Tumor growth was recorded three times a week, and rats were weighed weekly. The effect of various treatments on tumor growth was monitored over time using calipers, and the volume approximated to an ellipsoid (i.e., volume=length×width×height×0.5236) (Lokeshwar et al. 1993b). Tumor growth rate was determined by regression analysis of tumor volume versus time, for each tumor-bearing rat. Mean tumor growth rate (time to reach a fixed volume) for each treatment group was then used to evaluate the statistical significance of treatment efficacy using the INSTAT statistical program (Ravitz Software, San Diego, Calif.). Rats were euthanized once the tumor volume reached ≧10 cm^3. At that time animals were necropsied, tumors and lungs were removed and fixed in Bouin's fixative. Macroscopic tumor foci on the lungs were counted under a dissecting microscope.
In another series of experiments, we examined whether predosing host animals with the drugs would affect tumor growth and metastasis. Daily gavage of control or drugs (doxycycline or CMT-3; 40 mg/kg) was begun 7 days prior to the injections of the MAT LyLu tumor cells (2×10^5 cells/animal) and continued for a total of 21 days.
Tumor growth rates were calculated from thrice-weekly measurement of tumor volume with linear regression analysis of log-transformed volume measurements (Dudak et al. 1996).

Data set [7] has as its system ALVA 101. The experiment in a line: Cytotoxicity GI50 (MTT and thymidine incorporation), ALVA 101. It counts as cell-based. Conditions: Homo sapiens. The method, then: as §1, §2
In data set [8] the test system is C8161 cells. As to the kind of experiment: C8161 cell proliferation (doubling time). Type of data set: cell-based, human. Particulars: 50 μg/mL; for Doubling Time: on plastic, DMSO 22 hr. On the procedure:
Cell Culture and Maintenance: C8161 cells, a human melanoma cell line, were maintained in Dulbecco's modified Eagle's medium (DMEM; […] These cells were routinely screened for Mycoplasma contamination using the GenProbe Rapid Detection System (Fisher Scientific; Chicago, Ill.). Chemically Modified Tetracyclines: Fresh stock solutions of the chemically modified tetracycline compounds (2 mg/mL) were prepared for each experiment by hydrating in 2% dimethyl sulfoxide (DMSO)/water pH 10, then adjusting to pH 7.4 using 1.0 M HCl. […] Sigma Chem. Co.; control) or 50 μg/mL of doxycycline or the other CMTs (three wells on each plate per compound). […] The doubling time for C8161 cells in the presence of each compound was then determined and compared to the DMSO treated cells (control).

Data set [9] concerns BPH-1. The experiment in a line: Cytotoxicity GI50 (MTT and thymidine incorporation), BPH-1. Type of data set: cell-based. Conditions: Homo sapiens. On the procedure: as §1, §2
In data set [10] the test system is TSU-PR1 cells. As to the kind of experiment: Matrigel invasion assay (Boyden chamber, MTT), TSU-PR1. It counts as cell-based, human. Particulars: Homo sapiens; for IC50: TSU-PR1, 48 hr, read-out: 50% inhibitory dose (IC50), Matrigel invasion. On the procedure:
In this method, 4×10^5 tumor cells were plated on the top chamber of the Boyden chemotaxis assay chambers (Costar Transwell plates). The bottom side of the chamber was a 12 μm-pore polycarbonate filter layered with 0.5 mm thick layer of Matrigel. The bottom well contained a chemoattractant, a serum-free culture-conditioned medium from FHS 733 cells, a line of human fetal lung fibroblasts (ATCC No. HTB-157). Cancer cells (4×10^5) were plated in the top wells of the plates. Doxycycline or CMTs were diluted in a serum-free medium to 5 μg/mL, and were added to both top and bottom chambers. […] After 48 hr incubation, MTT was added to both the top and bottom wells (0.5 mg/mL), and incubation was continued for 4 hr. Wells were then emptied, and the cells from the undersides of the filter were pooled with those in the bottom wells with a filter tip. The reduced MTT (formazan) from top and bottom wells was solubilized with DMSO overnight, and absorbance (O.D.) at 515 nm was measured. The ratio of the O.D. from the bottom wells to that of the total (i.e., O.D. of top plus bottom wells) was taken as the invasive potential. […] The MTT assay procedure also normalizes the coincident inhibition due to the cytotoxic effects of the agents under investigation. Results presented are from three independent experiments.

Data set [11] can be described thus: MTS cytotoxicity assay, E-10. Conditions: human, E-10 clone of MDA-MB-231 breast carcinoma cells, percent cytotoxicity, two days.
Experimental: as §3

For `NC(=O)C1=C(O)CC2CC3Cc4cccc(O)c4C(=O)C3=C(O)C2(O)C1=O` (centres unmarked) [CMT-3, 6-demethyl-6-deoxy-4-de(dimethylamino)tetracycline], in data set [1], the GI50 amounted to 14.7 ± 2.64 µM. In data set [2], this molecule registered a cytotoxicity at 2 days, 5 µM of 17%; a cytotoxicity at 2 days, 10 µM of 28.8%; a cytotoxicity at 2 days, 20 µM of 52%; a cytotoxicity at 2 days, 50 µM of 79%. The cytotoxicity at 2 days, 100 µM in [2] worked out at 85.6%. Also, halving of growth in [3] (GI50) required 10.6 ± 2.1 µM. The same molecule had a GI50 in [4] of 5 ± 2.1 µM. This molecule displayed a GI50 in data set [5] of 5.06 ± 1.18 µM. For the same molecule, in data set [6], the “tumor growth rate (time to reach tumor volume of 3 cm^3)” value was found to be 20.2 ± 3.5 days, the “decrease in the number of lung metastases” value is 58±8% and the “remission of palpable tumors (rats)” value is 30%. In addition, in data set [6] (40 mg/kg, predosing), the “tumor incidence lower than control or doxycycline groups by” value is 55%±18 and the “tumor remission (inhibition of tumor incidence)” value is “tumor remission (inhibition of tumor incidence) occurred”. Also, the “gain in body weights” value in data set [6] (at termination (6-month post-treatment observation), control 3%) is recorded as 12%. Besides, the “decrease in MTF versus controls” value in [6] (predosing) was determined as 37.5%. Further, the “MTF in treated animals” value in [6] (predosing, animals with tumors ≧10 cm^3, controls 74.2±6.4) was 46.3±6.7. In data set [6] (preparation of CMT-3 of greater purity), this molecule returned a tumor incidence of 43%. In data set [7], this molecule showed a GI50 of 6.82 ± 0.75 µM. The “Doubling Time” value in data set [8] came out at 28 h. The “increase of doubling time” value in [8] (versus DMSO) is listed as approximately 27%. The molecule also registered a GI50 in data set [9] of 10.5 ± 3.7 µM. Moreover, the IC50 in data set [10] was 1.7 ± 0.31 µg/mL (≈ 4.58 µM). This molecule also displayed a cytotoxicity at 2 days, 5 µM in data set [11] of 0%.

With `C[C@H]1c2cccc(O)c2C(=O)C2=C(O)[C@]3(O)C(=O)C(C(N)=O)=C(O)[C@@H](N(C)C)[C@@H]3[C@@H](O)[C@@H]21` [Doxycycline, 6α-deoxy-5-hydroxy-tetracycline, reference compound], the GI50 in data set [1] was 41 ± 11 µM; in data set [3], 36.4 ± 2.5 µM; in data set [4], 13.9 ± 2.97 µM; in data set [5], 43.6 ± 9.36 µM; in [7] it was 36.6 ± 2.42 µM; in data set [9], 21.3 ± 5.4 µM. For the same molecule, the cytotoxicity at 2 days, 5 µM in data set [2] and in [11] was 0% throughout. For the same molecule, the cytotoxicity at 2 days, 10 µM in data set [2] and in data set [11] (10 μM) was 0% each time. Besides, the figures for the cytotoxicity at 2 days, 20 µM in data set [2] and in data set [11] (20 μM) were 45.7% and 4.5%, respectively. Moreover, the cytotoxicity at 2 days, 50 µM was 58.8% in data set [2] and 24.2% in [11] (50 μM). The values for the cytotoxicity at 2 days, 100 µM in data set [2] and in data set [11] (100 μM) were 66.5% and 29.5%, respectively. Also, in [6] (40 mg/kg daily, begun 7 days before implant, separate experiments), the tumor incidence is reported as more than 90%. Moreover, the “tumor growth rate (time to reach tumor volume of 3 cm^3)” value in data set [6] came to 16.7 ± 1.9 days. Further, in [6], the “decrease in the number of lung metastases” value is recorded as 33±7.0%. Also, the “remission of palpable tumors (rats)” value in data set [6] is reported as 20%. Also, the “Doubling Time” value in [8] turned out to be 22 h. In data set [10] (TSU-PR1, 5 μg/mL, 48 hr), this molecule came in with an inhibition at 5 µg/mL of 8 ± 1.8%. In data set [10], the IC50 amounted to 27 ± 4.3 µg/mL (≈ 60.8 µM).

What is called GI50 is the concentration at which growth is held to half of that of the control. A high value points to lower sensitivity of the cells. In general, IC50 refers to the point on the concentration scale where inhibition reaches its midpoint. The inhibition is the drop in the measured response relative to a control, in per cent. Read a high inhibition as strong suppression.
